Patent US20130237590A1, “ASSESSING THYROID NEOPLASMS” (MAYO FOUNDATION FOR MEDICAL EDUCATION AND RESEARCH, priority 2010, published 2013)

Key:
miR-122 [1] = experiment: miR-122 quantitation in FTC-133 cells; type: cell-based
Experimental: (§1) To generate stable lines, cells were seeded at 1×10^6 cells per 100 mm petri dish and transfected 24 hours later in multiples of six, with 10 μg each of vector or PPFP using LT-1 (Minus Bio, Madison, Wis.). For the generation of DN-PPARγ and miR stable cells, the DN-PPARγ construct (Reddi et al., Expression of the PAX8/PPARγ Fusion Protein Is Associated with Decreased Neovascularization In Vivo: Impact on Tumorigenesis and Disease Prognosis, Genes and Cancer, (2010)), mmu-Null, and mmu-miR122-EGFP constructs (Cellbio labs) were used. After 72 hours, WRO-Vector, WRO-PPFP, WRO-DN-PPARγ, FTC-Vector, and FTC−PPFP cells were obtained by selection in media containing 400 μg/mL of G418 (Invitrogen) with media changes every 72 hours. WRO-miR-Null and WRO-miR-122 cells were generated using 2.5 μg/mL puromycin selection. Pools of cells were harvested and analyzed for mRNA and microRNA expression by quantitative RT-PCR and for polypeptide expression by Western blotting.
(§2) RNA from each group of cells was isolated using TriZol Reagent (Invitrogen). […] PAX8/PPARγ fusion gene was detected by PCR using 5 μL of cDNA and a sense primer from exon 7 of PAX8 (5′-CGCGGATCCGCATT-GACTCACAGAGCA-3; SEQ ID NO:1; see, also, GenBank Accession No. NM_013953 and GI No.81295803) and antisense primer from exon 1 of PPARγ1 (5′-[…]-3; SEQ ID NO:2; GenBank Accession No. NM_138712 and GI No. 116284369). […]

miR-122 [2] = experiment: miR-122 quantitation by quantitative RT-PCR in WRO cells; type: cell-based; details: WRO-vector cells treated with 10 μM GW9662 for 24 hours
Experimental: as §1, §2

PPARγ [3] = experiment: PPRE luciferase reporter assay in WRO cells; type: cell-based
Experimental: (§3) Cells (0.3×10^6 cells/well) in six well plates were transfected using LT-1 reagent (Mirus, Madison Wis.) with 10 ng of Renilla (Promega, Madison, Wis.) and […] of PPRE-Aco-Luc reporter in triplicate. After 24 hours, cells were lysed and assayed using the dual luciferase kit (Promega). Data was calculated as a ratio of the luciferase to renilla expression and plotted as fold-change compared to vector. To test the effect of GW9662 on PPARγ activity, cells were treated 18 hours post transfection with either 2 μL DMSO or 10 μM GW9662 (a potent antagonist of PPARγ) for 24 hours prior to harvest and assay.

FTC-133 cells = experiment: in vivo xenograft tumor formation assay, FTC-133 stable cells; design: species or system athymic nude mice; details: FTC-133-PPFP cells (PTEN-null); by 4 weeks; vs vector only
Experimental: (§4) Stable cells (10^7) were resuspended in 100 μL of growth media and injected subcutaneously into both flanks of 5 week-old athymic nude mice (Fox1^nu/nu, Harlan, Indianapolis, Ind.). At least three mice were injected per group. Tumor size was determined weekly by measuring tumor length (L), width (W), and height (H) using vernier calipers (Vtumor=0.5236 LWH).

ARO cells = experiment: in vivo xenograft tumor formation assay, ARO colon cancer cells; design: species or system athymic nude mice; details: ARO-PPFP colon cancer cells; by 4 weeks
Experimental: (§5) To generate stable lines, cells were seeded at 1×10^6 cells per 100 mm petri dish and transfected 24 hours later in multiples of six, with 10 μg each of vector or PPFP using LT-1 (Minus Bio, Madison, Wis.). After 72 hours, ARO-Vector, ARO-PPFP, DRO-Vector, DRO-PPFP, FRO-Vector, FRO-PPFP, KTC-3-Vector, and KTC-3-PPFP cells were obtained by selection in media containing 400 μg/mL of G418 (Invitrogen) with media changes every 72 hours. Pools of cells were harvested and analyzed for PPFP expression by reverse transcriptase PCR.
as §4, with “(Fox1^nu/nu” for “(Fox1^nu/nu,”

WRO cells [4] = experiment: in vivo xenograft tumor formation assay, WRO stable cells; design: species or system athymic nude mice; details: WRO-PPFP cells, by 5 weeks
Experimental: as §4

ADAM-17 [5] = experiment: ADAM-17 transcript levels in immortalized thyrocytes; type: cell-based; details: immortalized thyrocytes (N-Thy-ori cells) expressing PPFP
KTC-3 cells = experiment: in vivo xenograft tumor formation assay, KTC-3 anaplastic thyroid cancer cells; design: species or system athymic nude mice; details: KTC-3-PPFP anaplastic thyroid cancer cells; in 6 weeks
Experimental: as §5
as §4, with “(Fox1^nu/nu” for “(Fox1^nu/nu,”

ADAM-17 [6] = experiment: ADAM-17 transcript levels in WRO cells; type: cell-based; details: stable WRO cells
CD-31 = experiment: microvessel density by CD-31 staining of WRO xenografts; type: in vivo, athymic nude mice; details: WRO xenografts compared to control xenografts
Experimental: Four tumors per group were formalin-fixed, paraffin-embedded, and individual sections stained with CD-31 (sc-1506-R, Santa Cruz, 1:200 dilution) specific antibody for 30-60 minutes and counterstained with hematoxylin. Antigen retrieval was done in EDTA at […] for 30 minutes after deparaffinization. Sections were blocked with peroxidase for 5 minutes and protein for 5 minutes. Antibody staining was visualized using Dako Envision plus System for 15 minutes followed by DAB chromogen for 10 minutes. Separate tumor sections were stained with hematoxylin and eosin to visualize tumor histology.
Stained slides were scanned using the Hamamatsu NanoZoomer (Bacus Laboratories, Inc., Chicago, Ill.). Digital images composed of multiple tiles (4096×64 pixel) were captured at 20× magnification. Image analysis was conducted as described elsewhere (Monahan et al., Endocrinology 150:4386-4394 (2009)). For each tumor section, the relative signal intensity from 10 randomly chosen fields (205×300 pixel) was quantified by histogram analysis (Adobe Photoshop). Data was expressed as signal intensity (signal pixel count divided by total image pixel count).

PPARγ [7] = experiment: PPRE luciferase reporter assay in FTC-133 cells; type: cell-based; details: FTC-133-PPFP cells
Experimental: as §3

miR-122 [8] = experiment: miR-122 quantitation in WRO xenografts; type: in vivo, athymic nude mice
Experimental: RNA from each group of cells was isolated using TriZol Reagent (Invitrogen). RNA (1 μg) was reverse transcribed with oligo-dT primers using Message Sensor RT kit (Ambion, Austin, Tex.). PAX8/PPARγ fusion gene was detected by PCR using 5 μL of cDNA and a sense primer from exon 7 of PAX8 (5′-CGCGGATCCGCATT-GACTCACAGAGCA-3; SEQ ID NO:1; see, also, GenBank Accession No. NM_013953 and GI No.81295803) and antisense primer from exon 1 of PPARγ1 (5′-[…]-3; SEQ ID NO:2; GenBank Accession No. NM_138712 and GI No. 116284369). Glyceraldehyde 3-phosphate dehydrogenase (GAPDH) was amplified using kit primers. Xenografts were harvested at weeks 1 and 2 post induction and homogenized in T-PER (Pierce, Rockford, Ill.). RNA was extracted, and RT-PCR was performed for PPFP and GAPDH. Annealing temperature for PPFP and GAPDH was 55° C. for 30 seconds. miR-122 status was verified using TaqMan microRNA assays (Applied Biosystems) as per the manufacturer's instructions.
as §4

FRO cells = experiment: in vivo xenograft tumor formation assay, FRO anaplastic thyroid cancer cells; design: species or system athymic nude mice; details: FRO-PPFP anaplastic thyroid cancer cells; in 5 weeks
Experimental: as §5
as §4, with “(Fox1^nu/nu” for “(Fox1^nu/nu,”

DRO cells = experiment: in vivo xenograft tumor formation assay, DRO melanoma cells; design: species or system athymic nude mice; details: DRO-PPFP melanoma cells; by 6 weeks
Experimental: as §5
as §4, with “(Fox1^nu/nu” for “(Fox1^nu/nu,”

WRO cells [9] = experiment: in vitro cell growth of stable WRO cells (absorbance at 490 nm); type: cell-based; details: stable WRO cells compared to WRO-vector cells; 72 hours
Experimental: as §1

## PTEN: PTEN transiently expressed from an expression plasmid in FTC-133 cells [reference compound]
miR-122 [1]; transient expression of PTEN in FTC-133(+PPFP) cells vs vector only cells
  increase in miR-122 expression: 77 fold

## O=C(Nc1ccccc1)c1cc([N+](=O)[O-])ccc1Cl [GW9662, reference compound]
miR-122 [2]
  miR-122 expression: not accompanied by increased miR-122 expression
PPARγ [3]; WRO-vector cells treated with 10 μM GW9662 for 24 hours
  PPRE activity: significant decrease in PPRE activity

## PPFP: PAX8/PPARγ fusion protein, constitutively expressed from a CMV promoter construct in stably transfected cancer cell lines
FTC-133 cells
  inhibition of xenograft tumor progression: < 2 fold
ARO cells
  inhibition of xenograft tumor progression: 39.5%
WRO cells [4]
  inhibition of xenograft tumor progression: 72%
WRO cells [4]; vs vector only
  inhibition of xenograft tumor progression: 9 fold
ADAM-17 [5]
  reduction of ADAM-17 mRNA expression: not
KTC-3 cells
  inhibition of xenograft tumor progression: 77.2%
miR-122 [1]; FTC-133(+PPFP) cells (PTEN-null)
  miR-122 expression: did not increase miR-122 expression
ADAM-17 [6]
  reduction of ADAM-17 mRNA expression: 50%
PPARγ [3]; stable WRO cells vs vector
  inhibition of PPARγ activity (activation of PPRE): 29%
CD-31
  decrease in microvessel density (CD-31 staining): 2.1 fold
PPARγ [7]
  inhibition of activation of PPRE: 69%
miR-122 [8]
  increase in miR-122 expression: 40.0 (p < 0.054) fold
FRO cells
  inhibition of xenograft tumor progression: 80.1%
DRO cells
  inhibition of xenograft tumor progression: 57.5%
WRO cells [9]
  decrease (inhibition) of in vitro cell growth: 19%
